A value given as a limit tells only on which side of the number the result lay.

Test [1] concerns the target Phosphatidylinositol 4-kinase alpha (Homo sapiens, UniProt P42356). The test is described as follows: Selectivity interaction (Kinase panel (KiNativ target engagement assay in Jurkat cells)) EUB0001635a PI4KA. The following applies: Selectivity number of off-targets 0.0, Selectivity number of targets 233.0, Source Knowledge https://www.sciencedirect.com/science/article/pii/S2451945619300674?via%3Dihub, at 1 µM. The class given is cell-based.

In test [2] the target is T1, Serine/threonine-protein kinase PLK4 (Homo sapiens) (UniProt O00444).
T1 sequence (whole entry): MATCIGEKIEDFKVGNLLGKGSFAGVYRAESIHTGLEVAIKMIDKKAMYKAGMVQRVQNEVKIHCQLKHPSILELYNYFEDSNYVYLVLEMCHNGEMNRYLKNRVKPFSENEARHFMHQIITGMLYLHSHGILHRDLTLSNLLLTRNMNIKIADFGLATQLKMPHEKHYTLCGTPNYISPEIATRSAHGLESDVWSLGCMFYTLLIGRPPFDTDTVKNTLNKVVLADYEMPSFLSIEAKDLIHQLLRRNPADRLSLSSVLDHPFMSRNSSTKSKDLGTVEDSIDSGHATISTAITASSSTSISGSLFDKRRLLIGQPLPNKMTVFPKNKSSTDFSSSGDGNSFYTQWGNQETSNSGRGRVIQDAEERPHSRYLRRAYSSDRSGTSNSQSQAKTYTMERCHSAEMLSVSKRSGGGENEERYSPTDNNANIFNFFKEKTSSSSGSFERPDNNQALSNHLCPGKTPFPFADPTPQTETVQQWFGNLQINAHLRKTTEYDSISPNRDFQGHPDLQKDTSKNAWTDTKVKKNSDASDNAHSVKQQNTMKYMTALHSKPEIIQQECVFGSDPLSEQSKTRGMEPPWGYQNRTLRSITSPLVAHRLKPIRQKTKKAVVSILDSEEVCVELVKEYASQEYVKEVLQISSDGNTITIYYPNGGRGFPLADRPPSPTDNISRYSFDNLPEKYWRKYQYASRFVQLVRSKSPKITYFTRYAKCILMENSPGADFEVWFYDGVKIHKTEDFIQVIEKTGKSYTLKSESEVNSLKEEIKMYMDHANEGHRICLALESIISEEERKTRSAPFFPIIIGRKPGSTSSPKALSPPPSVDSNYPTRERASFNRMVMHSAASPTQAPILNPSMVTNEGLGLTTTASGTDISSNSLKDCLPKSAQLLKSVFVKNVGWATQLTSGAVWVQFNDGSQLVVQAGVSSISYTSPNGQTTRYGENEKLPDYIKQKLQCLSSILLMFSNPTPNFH
The test is described as follows: Selectivity interaction (Kinase panel (DSF assay)) EUB0001558a PLK4. For orientation: In DSF a fluorescence change marks the thermal transition of the protein.

For test [3], the target named is Histone-lysine N-methyltransferase ASH1L (Homo sapiens) (UniProt Q9NR48). Particulars: at 10 µM.
The target in test [4] is Serine/threonine-protein kinase VRK2 (Homo sapiens) (UniProt Q86Y07). Nature of the test: Selectivity interaction (KinomeScan (DiscoverX)) EUB0000655a VRK2. Particulars: at 10 µM.
Test [5] deals with T2, Alpha-1B adrenergic receptor (Homo sapiens) (UniProt P35368).
T2 sequence (whole entry): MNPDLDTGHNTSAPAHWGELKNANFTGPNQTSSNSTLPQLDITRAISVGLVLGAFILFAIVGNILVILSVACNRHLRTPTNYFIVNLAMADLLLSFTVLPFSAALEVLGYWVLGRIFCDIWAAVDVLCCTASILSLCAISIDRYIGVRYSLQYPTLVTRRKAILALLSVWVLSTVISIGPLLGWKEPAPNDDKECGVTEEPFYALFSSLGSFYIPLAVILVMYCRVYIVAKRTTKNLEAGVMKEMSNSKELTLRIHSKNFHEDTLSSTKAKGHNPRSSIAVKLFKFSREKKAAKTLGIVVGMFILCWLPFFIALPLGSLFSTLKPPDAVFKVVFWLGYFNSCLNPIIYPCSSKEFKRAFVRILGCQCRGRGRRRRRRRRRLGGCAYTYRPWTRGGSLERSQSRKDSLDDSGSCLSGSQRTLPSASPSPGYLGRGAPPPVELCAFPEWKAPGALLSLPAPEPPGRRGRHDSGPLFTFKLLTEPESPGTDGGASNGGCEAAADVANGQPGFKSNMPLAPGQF
Nature of the test: Selectivity interaction (Panel of kinases, GPCRs, ion channels and transporters (enzymatic assay)) EUB0000266bCl ADRA1B.

Test [6] addresses Serine/threonine-protein kinase 10 (Homo sapiens) (UniProt O94804). Nature of the test: Selectivity interaction (KinomeScan (DiscoverX)) EUB0001619a STK10. The following applies: at 1 µM.
The target of test [7] is T3, Tyrosine-protein kinase Tec (Homo sapiens) (UniProt P42680).
T3 sequence (whole entry): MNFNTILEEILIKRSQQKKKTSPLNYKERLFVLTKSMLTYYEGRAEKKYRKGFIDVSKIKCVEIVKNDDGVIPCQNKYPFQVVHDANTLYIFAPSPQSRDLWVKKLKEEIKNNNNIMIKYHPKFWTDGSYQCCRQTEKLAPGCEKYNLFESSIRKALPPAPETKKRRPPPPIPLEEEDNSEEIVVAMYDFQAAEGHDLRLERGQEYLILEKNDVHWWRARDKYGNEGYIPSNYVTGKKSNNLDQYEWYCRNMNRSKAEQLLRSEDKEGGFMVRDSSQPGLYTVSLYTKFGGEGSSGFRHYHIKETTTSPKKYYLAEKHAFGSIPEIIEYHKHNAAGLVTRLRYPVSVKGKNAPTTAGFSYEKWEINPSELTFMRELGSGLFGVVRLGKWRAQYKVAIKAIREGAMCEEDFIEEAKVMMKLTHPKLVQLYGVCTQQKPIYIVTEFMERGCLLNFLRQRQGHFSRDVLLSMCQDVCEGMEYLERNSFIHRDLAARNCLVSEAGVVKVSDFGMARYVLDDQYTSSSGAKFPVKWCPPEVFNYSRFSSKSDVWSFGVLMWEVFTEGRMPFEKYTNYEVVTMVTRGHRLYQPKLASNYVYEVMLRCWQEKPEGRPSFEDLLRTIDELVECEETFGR
The test is described as follows: Selectivity interaction (KinomeScan (DiscoverX)) EUB0001619a TEC. The following applies: at 1 µM.

Test [8] has as its target Serine/threonine-protein kinase PAK 4 (Homo sapiens, UniProt O96013). The test is described as follows: Selectivity interaction (KinomeScan (DiscoverX)) EUB0000695a PAK4. Particulars: at 100 nM.

Sequence of Serine/threonine-protein kinase VRK2 (Homo sapiens) (Q86Y07 whole entry): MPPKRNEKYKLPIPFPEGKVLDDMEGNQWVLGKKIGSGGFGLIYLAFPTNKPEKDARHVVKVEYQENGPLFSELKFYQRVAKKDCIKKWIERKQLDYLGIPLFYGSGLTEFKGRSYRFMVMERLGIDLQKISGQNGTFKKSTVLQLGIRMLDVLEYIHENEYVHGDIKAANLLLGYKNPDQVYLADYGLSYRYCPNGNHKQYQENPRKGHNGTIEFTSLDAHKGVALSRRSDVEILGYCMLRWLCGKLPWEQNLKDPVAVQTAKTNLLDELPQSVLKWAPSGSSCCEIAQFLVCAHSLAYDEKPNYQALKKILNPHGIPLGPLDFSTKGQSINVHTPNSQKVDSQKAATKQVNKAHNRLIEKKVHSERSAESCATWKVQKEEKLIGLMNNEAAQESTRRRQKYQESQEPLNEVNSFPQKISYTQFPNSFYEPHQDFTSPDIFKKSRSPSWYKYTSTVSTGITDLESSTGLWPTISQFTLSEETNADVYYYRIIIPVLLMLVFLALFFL
Sequence of Phosphatidylinositol 4-kinase alpha (P42356 whole entry, looked up): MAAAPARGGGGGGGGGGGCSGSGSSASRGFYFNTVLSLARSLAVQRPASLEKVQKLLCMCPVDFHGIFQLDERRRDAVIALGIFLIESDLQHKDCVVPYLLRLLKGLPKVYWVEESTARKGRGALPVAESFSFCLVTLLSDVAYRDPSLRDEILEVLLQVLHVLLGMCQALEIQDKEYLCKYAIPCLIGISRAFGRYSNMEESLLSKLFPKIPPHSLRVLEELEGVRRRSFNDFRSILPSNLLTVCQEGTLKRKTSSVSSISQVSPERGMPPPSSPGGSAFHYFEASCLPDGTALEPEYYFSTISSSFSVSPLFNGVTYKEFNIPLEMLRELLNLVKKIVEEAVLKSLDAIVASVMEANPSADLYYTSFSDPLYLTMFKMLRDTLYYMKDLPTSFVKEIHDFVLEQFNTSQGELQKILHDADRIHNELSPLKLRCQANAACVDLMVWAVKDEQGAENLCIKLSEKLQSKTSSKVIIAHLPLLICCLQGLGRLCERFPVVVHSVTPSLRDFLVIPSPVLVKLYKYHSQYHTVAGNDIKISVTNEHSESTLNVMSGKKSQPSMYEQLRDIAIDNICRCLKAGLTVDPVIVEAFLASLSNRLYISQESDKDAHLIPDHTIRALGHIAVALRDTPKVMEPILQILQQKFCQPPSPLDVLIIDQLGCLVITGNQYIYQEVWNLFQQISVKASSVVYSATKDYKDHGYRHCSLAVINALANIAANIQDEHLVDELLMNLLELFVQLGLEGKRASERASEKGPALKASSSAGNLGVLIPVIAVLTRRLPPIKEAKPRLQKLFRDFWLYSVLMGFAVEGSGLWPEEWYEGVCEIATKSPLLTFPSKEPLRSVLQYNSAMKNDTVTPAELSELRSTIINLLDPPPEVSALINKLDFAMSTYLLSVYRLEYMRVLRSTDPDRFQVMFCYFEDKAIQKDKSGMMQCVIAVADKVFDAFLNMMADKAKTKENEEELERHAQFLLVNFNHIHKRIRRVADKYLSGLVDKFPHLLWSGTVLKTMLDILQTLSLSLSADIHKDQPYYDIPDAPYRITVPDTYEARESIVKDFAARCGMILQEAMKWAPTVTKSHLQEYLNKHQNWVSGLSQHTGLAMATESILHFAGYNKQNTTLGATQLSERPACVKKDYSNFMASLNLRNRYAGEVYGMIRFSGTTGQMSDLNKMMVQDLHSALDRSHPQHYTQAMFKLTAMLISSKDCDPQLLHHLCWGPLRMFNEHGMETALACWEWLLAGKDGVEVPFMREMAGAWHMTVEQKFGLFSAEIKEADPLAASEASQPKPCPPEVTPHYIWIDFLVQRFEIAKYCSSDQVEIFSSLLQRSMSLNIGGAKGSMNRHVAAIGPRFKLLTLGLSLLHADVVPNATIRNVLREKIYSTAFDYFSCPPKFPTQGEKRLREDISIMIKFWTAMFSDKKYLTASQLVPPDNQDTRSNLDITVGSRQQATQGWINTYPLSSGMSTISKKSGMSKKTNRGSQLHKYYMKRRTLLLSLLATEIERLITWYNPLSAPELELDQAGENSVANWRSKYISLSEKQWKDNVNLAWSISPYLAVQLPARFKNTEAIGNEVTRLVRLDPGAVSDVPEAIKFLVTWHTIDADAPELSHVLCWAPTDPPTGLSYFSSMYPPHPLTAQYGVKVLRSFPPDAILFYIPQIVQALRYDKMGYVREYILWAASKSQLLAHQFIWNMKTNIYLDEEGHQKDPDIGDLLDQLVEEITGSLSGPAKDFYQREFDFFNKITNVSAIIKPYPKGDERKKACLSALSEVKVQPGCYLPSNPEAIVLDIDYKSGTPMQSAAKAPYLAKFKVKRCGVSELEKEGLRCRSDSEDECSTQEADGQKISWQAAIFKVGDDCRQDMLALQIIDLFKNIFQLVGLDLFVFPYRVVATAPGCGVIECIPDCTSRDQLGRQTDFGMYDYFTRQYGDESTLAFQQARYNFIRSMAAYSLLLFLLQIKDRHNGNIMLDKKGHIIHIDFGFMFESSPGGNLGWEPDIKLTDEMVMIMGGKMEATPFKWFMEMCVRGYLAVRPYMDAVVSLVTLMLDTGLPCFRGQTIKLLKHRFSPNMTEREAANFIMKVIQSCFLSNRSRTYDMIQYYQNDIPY
Sequence of Serine/threonine-protein kinase PAK 4 (O96013 whole entry, looked up): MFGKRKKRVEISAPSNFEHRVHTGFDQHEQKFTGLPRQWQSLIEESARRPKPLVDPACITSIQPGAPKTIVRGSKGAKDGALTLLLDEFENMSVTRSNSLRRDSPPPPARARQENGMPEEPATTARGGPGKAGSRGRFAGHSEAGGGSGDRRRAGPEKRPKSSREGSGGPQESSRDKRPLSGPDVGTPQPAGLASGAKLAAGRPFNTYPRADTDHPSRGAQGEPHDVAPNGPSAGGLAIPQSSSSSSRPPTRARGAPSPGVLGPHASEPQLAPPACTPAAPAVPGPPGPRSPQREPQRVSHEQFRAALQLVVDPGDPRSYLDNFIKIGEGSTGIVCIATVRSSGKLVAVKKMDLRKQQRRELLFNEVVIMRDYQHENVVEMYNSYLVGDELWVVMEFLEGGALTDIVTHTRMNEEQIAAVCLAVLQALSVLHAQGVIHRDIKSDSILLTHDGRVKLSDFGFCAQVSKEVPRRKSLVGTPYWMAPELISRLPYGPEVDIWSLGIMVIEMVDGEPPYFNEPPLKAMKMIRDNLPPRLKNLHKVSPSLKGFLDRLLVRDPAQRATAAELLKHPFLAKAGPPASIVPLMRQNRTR
Sequence of Serine/threonine-protein kinase 10 (Homo sapiens) (O94804 whole entry, looked up): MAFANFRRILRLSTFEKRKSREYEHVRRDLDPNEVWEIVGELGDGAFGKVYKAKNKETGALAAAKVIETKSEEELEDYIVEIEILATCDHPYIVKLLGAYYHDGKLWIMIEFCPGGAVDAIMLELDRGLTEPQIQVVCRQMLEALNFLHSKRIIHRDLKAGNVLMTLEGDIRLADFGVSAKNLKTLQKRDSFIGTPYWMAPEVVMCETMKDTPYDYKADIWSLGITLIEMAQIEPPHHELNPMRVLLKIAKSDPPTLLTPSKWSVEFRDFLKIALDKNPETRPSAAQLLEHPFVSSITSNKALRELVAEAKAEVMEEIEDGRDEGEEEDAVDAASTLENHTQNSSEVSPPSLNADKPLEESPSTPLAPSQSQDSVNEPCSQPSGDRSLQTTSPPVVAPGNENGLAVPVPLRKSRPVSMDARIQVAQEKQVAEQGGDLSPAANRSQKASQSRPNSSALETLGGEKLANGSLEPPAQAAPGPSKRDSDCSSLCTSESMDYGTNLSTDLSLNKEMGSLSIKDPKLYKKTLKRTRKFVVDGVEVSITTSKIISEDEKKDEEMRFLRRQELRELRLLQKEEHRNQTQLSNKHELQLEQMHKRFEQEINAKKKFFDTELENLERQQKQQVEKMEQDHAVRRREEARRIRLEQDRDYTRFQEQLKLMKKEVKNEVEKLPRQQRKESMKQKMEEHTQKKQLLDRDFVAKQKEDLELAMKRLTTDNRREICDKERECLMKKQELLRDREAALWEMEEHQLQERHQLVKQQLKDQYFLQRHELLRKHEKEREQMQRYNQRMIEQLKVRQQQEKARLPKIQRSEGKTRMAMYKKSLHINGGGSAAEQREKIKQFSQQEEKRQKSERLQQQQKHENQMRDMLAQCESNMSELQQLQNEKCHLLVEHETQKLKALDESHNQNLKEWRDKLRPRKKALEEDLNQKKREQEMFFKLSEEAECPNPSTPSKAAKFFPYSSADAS

In turn, `C=CC(=O)Nc1ccc(C(=O)Nc2[nH]nc3c2CN(C(=O)N[C@H](CN(C)C)c2ccccc2)C3(C)C)cc1` registered a % of engagement in test [1] of 5.7%. On to `CC(C)(O)[C@H](F)CN1Cc2cc(NC(=O)c3cnn4cccnc34)c(N3CCOCC3)cc2C1=O`, for which the dTM in test [2] was 5.2 K. The molecule `CNCCN1CCC(c2cc(CN(C)C(=O)c3cccc(Oc4ccccc4)c3)ccn2)CC1` had a % activity in test [3] greater than 90%. In test [4], `CN(C)CCOc1ccc(-c2nc(-c3ccncc3)c(-c3ccc4c(c3)CC/C4=N\O)[nH]2)cc1` displayed a % of control of 94%.

For `CCn1c(-c2nc3cc(C(=O)N4CCCC(N)C4)ccc3n2C)cc2ccccc21` (stereo not drawn), the pXC50 in test [5] is 5.4 M. Consider `N#Cc1cccc(-c2c[nH]c3ncnc(N4CCOCC4)c23)c1`, for which the % of control in test [6] turned out to be 33%; in test [7], 100%.

As for `Cc1cc(F)c(C(=O)Nc2cccc(-c3nncn3C(C)C)n2)cc1-n1cnc(C2CC2)c1`, the % of control in test [8] was 99%.
